Biological target: Cys-TrxR (recombinant E. coli thioredoxin reductase) (Escherichia coli, UniProt P0A9P4)
Assay: Trx-dependent reduction assay
Assay type: biochemical

Sequence of Cys-TrxR (recombinant E. coli thioredoxin reductase) (P0A9P4 2-321): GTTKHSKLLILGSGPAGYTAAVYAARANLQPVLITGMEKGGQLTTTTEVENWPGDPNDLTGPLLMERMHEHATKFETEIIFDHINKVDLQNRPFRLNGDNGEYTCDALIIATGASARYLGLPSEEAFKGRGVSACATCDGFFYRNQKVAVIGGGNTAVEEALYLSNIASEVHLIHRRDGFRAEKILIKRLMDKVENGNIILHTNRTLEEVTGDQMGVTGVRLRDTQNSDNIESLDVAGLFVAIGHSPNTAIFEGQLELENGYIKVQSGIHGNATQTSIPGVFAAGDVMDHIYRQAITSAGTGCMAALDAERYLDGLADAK

Compound | IC50 [µM]
N#C[Se]O [HOSeCN] | 4.3
N#CSO [HOSCN] | 9.3

— publication PMC6951815 (Free radical biology & medicine, 2019)
